# Measurements published in article PMC12454493, “Insight on novel sulfamoylphenyl pyrazole derivatives as anticancer carbonic anhydrase inhibitors” (Molecular Diversity, 2024).
# Experiments:
# HCT-116 = assay: NCI-60 one-dose SRB screen (Colon Cancer); type: cell-based; conditions: Homo sapiens, single dose 10 µM, 48 h, read-out: Growth inhibition percent (GI %)
# Protocol: (§1) The National Cancer Institute (NCI) Developmental Therapeutic Program (www.dtp.nci.nih.gov) selected the 20 novel synthesized compounds 4a-e, 5a-e, 6a-c, 9a-e, 10 and 11 to test for their anticancer activity at a single dose of 10 µM using SRB assay. […] Supplementary Data S3; Table S1 presents the detailed screening results of the most promising compounds. The preliminary screening’s detailed results for the remaining compounds are elucidated in the (Supplementary Data S3; Table S2).
# (§2) The guidelines of the Drug Evaluation Branch’s protocol at the NCI in Bethesda served as the basis for the in vitro anticancer screening assays. at one dose 10 µM against a panel of 60 cancer cell lines. The human tumor cell lines used belonged to nine panels: leukemia, melanoma, lung, colon, CNS, ovarian, renal, prostate and breast cancers using the sulforhodamine B (SRB) assay in a 48 h drug exposure protocol.
# SW-620 = assay: NCI-60 one-dose SRB screen (Colon Cancer); type: cell-based; conditions: Homo sapiens, single dose 10 µM, 48 h, read-out: Growth inhibition percent (GI %)
# Protocol: as §1, §2
# HCC-2998 = assay: NCI-60 one-dose SRB screen (Colon Cancer); type: cell-based; conditions: Homo sapiens, single dose 10 µM, 48 h, read-out: Growth inhibition percent (GI %)
# Protocol: as §1, §2
# KM12 = assay: NCI-60 one-dose SRB screen (Colon Cancer); type: cell-based; conditions: Homo sapiens, single dose 10 µM, 48 h, read-out: Growth inhibition percent (GI %)
# Protocol: as §1, §2
# HCT-15 = assay: NCI-60 one-dose SRB screen (Colon Cancer); type: cell-based; conditions: Homo sapiens, single dose 10 µM, 48 h, read-out: Growth inhibition percent (GI %)
# Protocol: as §1, §2
# HT29 = assay: NCI-60 one-dose SRB screen (Colon Cancer); type: cell-based; conditions: Homo sapiens, HT-29, single dose 10 µM, 48 h, read-out: Growth inhibition percent (GI %)
# Protocol: as §1, §2
# COLO 205 = assay: NCI-60 one-dose SRB screen (Colon Cancer); type: cell-based; conditions: Homo sapiens, single dose 10 µM, 48 h, read-out: Growth inhibition percent (GI %)
# Protocol: as §1, §2
# SK-MEL-2 = assay: NCI-60 one-dose SRB screen (Melanoma); type: cell-based; conditions: Homo sapiens, single dose 10 µM, 48 h, read-out: Growth inhibition percent (GI %)
# Protocol: as §1, §2
# MDA-MB-435 = assay: NCI-60 one-dose SRB screen (Melanoma); type: cell-based; conditions: Homo sapiens, single dose 10 µM, 48 h, read-out: Growth inhibition percent (GI %)
# Protocol: as §1, §2
# UACC-257 = assay: NCI-60 one-dose SRB screen (Melanoma); type: cell-based; conditions: Homo sapiens, single dose 10 µM, 48 h, read-out: Growth inhibition percent (GI %)
# Protocol: as §1, §2
# SK-MEL-28 = assay: NCI-60 one-dose SRB screen (Melanoma); type: cell-based; conditions: Homo sapiens, single dose 10 µM, 48 h, read-out: Growth inhibition percent (GI %)
# Protocol: as §1, §2
# SK-MEL-5 = assay: NCI-60 one-dose SRB screen (Melanoma); type: cell-based; conditions: Homo sapiens, single dose 10 µM, 48 h, read-out: Growth inhibition percent (GI %)
# Protocol: as §1, §2
# LOX IMVI = assay: NCI-60 one-dose SRB screen (Melanoma); type: cell-based; conditions: Homo sapiens, single dose 10 µM, 48 h, read-out: Growth inhibition percent (GI %)
# Protocol: as §1, §2
# MALME-3M = assay: NCI-60 one-dose SRB screen (Melanoma); type: cell-based; conditions: Homo sapiens, single dose 10 µM, 48 h, read-out: Growth inhibition percent (GI %)
# Protocol: as §1, §2
# UACC-62 = assay: NCI-60 one-dose SRB screen (Melanoma); type: cell-based; conditions: Homo sapiens, single dose 10 µM, 48 h, read-out: Growth inhibition percent (GI %)
# Protocol: as §1, §2
# M14 = assay: NCI-60 one-dose SRB screen (Melanoma); type: cell-based; conditions: Homo sapiens, single dose 10 µM, 48 h, read-out: Growth inhibition percent (GI %)
# Protocol: as §1, §2
# RPMI-8226 = assay: NCI-60 one-dose SRB screen (Leukemia); type: cell-based; conditions: Homo sapiens, single dose 10 µM, 48 h, read-out: Growth inhibition percent (GI %)
# Protocol: as §1, §2
# SR = assay: NCI-60 one-dose SRB screen (Leukemia); type: cell-based; conditions: Homo sapiens, single dose 10 µM, 48 h, read-out: Growth inhibition percent (GI %)
# Protocol: as §1, §2
# K-562 = assay: NCI-60 one-dose SRB screen (Leukemia); type: cell-based; conditions: Homo sapiens, K562, single dose 10 µM, 48 h, read-out: Growth inhibition percent (GI %)
# Protocol: as §1, §2
# CCRF-CEM = assay: NCI-60 one-dose SRB screen (Leukemia); type: cell-based; conditions: Homo sapiens, single dose 10 µM, 48 h, read-out: Growth inhibition percent (GI %)
# Protocol: as §1, §2
# MOLT-4 = assay: NCI-60 one-dose SRB screen (Leukemia); type: cell-based; conditions: Homo sapiens, single dose 10 µM, 48 h, read-out: Growth inhibition percent (GI %)
# Protocol: as §1, §2
# HL-60(TB) = assay: NCI-60 one-dose SRB screen (Leukemia); type: cell-based; conditions: Homo sapiens, single dose 10 µM, 48 h, read-out: Growth inhibition percent (GI %)
# Protocol: as §1, §2
# PC-3 = assay: NCI-60 one-dose SRB screen (Prostate Cancer); type: cell-based; conditions: Homo sapiens, single dose 10 µM, 48 h, read-out: Growth inhibition percent (GI %)
# Protocol: as §1, §2
# DU-145 = assay: NCI-60 one-dose SRB screen (Prostate Cancer); type: cell-based; conditions: Homo sapiens, single dose 10 µM, 48 h, read-out: Growth inhibition percent (GI %)
# Protocol: as §1, §2
# hCA XII = hCA XII (Homo sapiens, UniProt O43570); assay: CA inhibitory activity, spectrophotometric p-NPA assay; type: biochemical; conditions: p-NPA substrate, pH 7.5, 25 °C, triplicate; read-out: IC50 (µM) ± SD hCA XII
# UO-31 = assay: NCI-60 one-dose SRB screen (Renal Cancer); type: cell-based; conditions: Homo sapiens, single dose 10 µM, 48 h, read-out: Growth inhibition percent (GI %)
# Protocol: as §1, §2
# A498 = assay: NCI-60 one-dose SRB screen (Renal Cancer); type: cell-based; conditions: Homo sapiens, single dose 10 µM, 48 h, read-out: Growth inhibition percent (GI %)
# Protocol: as §1, §2
# ACHN = assay: NCI-60 one-dose SRB screen (Renal Cancer); type: cell-based; conditions: Homo sapiens, single dose 10 µM, 48 h, read-out: Growth inhibition percent (GI %)
# Protocol: as §1, §2
# CAKI-1 = assay: NCI-60 one-dose SRB screen (Renal Cancer); type: cell-based; conditions: Homo sapiens, single dose 10 µM, 48 h, read-out: Growth inhibition percent (GI %)
# Protocol: as §1, §2
# RXF 393 = assay: NCI-60 one-dose SRB screen (Renal Cancer); type: cell-based; conditions: Homo sapiens, single dose 10 µM, 48 h, read-out: Growth inhibition percent (GI %)
# Protocol: as §1, §2
# Sequence of hCA XII (O43570 25-354): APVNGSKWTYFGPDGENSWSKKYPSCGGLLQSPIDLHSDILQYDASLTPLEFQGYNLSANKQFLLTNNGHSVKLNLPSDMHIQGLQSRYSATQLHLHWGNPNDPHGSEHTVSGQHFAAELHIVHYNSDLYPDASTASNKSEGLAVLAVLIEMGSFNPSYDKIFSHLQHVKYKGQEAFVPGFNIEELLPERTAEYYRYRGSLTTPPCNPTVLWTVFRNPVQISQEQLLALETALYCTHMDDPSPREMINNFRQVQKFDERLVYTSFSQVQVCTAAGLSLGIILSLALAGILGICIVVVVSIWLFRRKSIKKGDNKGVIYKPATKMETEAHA
smiles,measurement,setting,value
"COc1ccc(-c2nn(-c3ccc(S(N)(=O)=O)cc3)cc2C(=O)NNC(N)=S)cc1 [Compound 9c, 2-[3-(4-Methoxyphenyl)-1-(4-sulfamoylphenyl)-1H-pyrazole-4-carbonyl] hydrazine-1-carbothioamide]",inhibition at 10 µM,HCT-116,< 5%
same,inhibition at 10 µM,SW-620,< 5%
same,inhibition at 10 µM,HCC-2998,< 5%
same,inhibition at 10 µM,KM12,< 5%
same,inhibition at 10 µM,HCT-15,< 5%
same,inhibition at 10 µM,HT29,< 5%
same,inhibition at 10 µM,COLO 205,< 5%
same,inhibition at 10 µM,SK-MEL-2,< 5%
same,inhibition at 10 µM,MDA-MB-435,< 5%
same,inhibition at 10 µM,UACC-257,< 5%
same,inhibition at 10 µM,SK-MEL-28,< 5%
same,inhibition at 10 µM,SK-MEL-5,< 5%
same,inhibition at 10 µM,LOX IMVI,< 5%
same,inhibition at 10 µM,MALME-3M,< 5%
same,inhibition at 10 µM,UACC-62,8.41%
same,inhibition at 10 µM,M14,< 5%
same,inhibition at 10 µM,RPMI-8226,< 5%
same,inhibition at 10 µM,SR,< 5%
same,inhibition at 10 µM,K-562,< 5%
same,inhibition at 10 µM,CCRF-CEM,< 5%
same,inhibition at 10 µM,MOLT-4,< 5%
same,inhibition at 10 µM,HL-60(TB),< 5%
same,inhibition at 10 µM,PC-3,< 5%
same,inhibition at 10 µM,DU-145,< 5%
same,IC50,hCA XII,0.168 ± 0.006 µM
same,inhibition at 10 µM,UO-31,< 5%
same,inhibition at 10 µM,A498,< 5%
same,inhibition at 10 µM,ACHN,< 5%
same,inhibition at 10 µM,CAKI-1,< 5%
same,inhibition at 10 µM,RXF 393,< 5%
